# Entries after “also recorded” stand apart in the source; their conditions may differ.
# Experiments:
# [1] = tested on: SH-SY5Y cells; test: Western blot of acetyl-α-tubulin and acetyl-histone, SH-SY5Y cells; format: cell-based, human; details: 0.1 to 1 μM, 24 h
# Method: Cell viabilities were determined by MTT assay. The results represent the mean ± SEM of three independent experiments; *p < 0.05, **p < 0.01 and ***p < 0.001 compared with controls TEXT PRINTED IN THE PICTURE: (A) no label printed: M.W. 293.32
# (§1) Cells (1 × 10^6) were incubated for 10 min at 4 °C in lysis buffer (20 mM HEPES, pH 7.4, 2 mM EGTA, 50 mM β-glycerophosphate, 0.1% Triton X-100, 10% glycerol, 1 mM dithiothreitol, 1 μg/mL leupeptin, 5 μg/mL aprotinin, 1 mM phenylmethylsulfonyl fluoride, and 1 mM sodium orthovanadate), scraped from the plate, incubated on ice for 10 min, and centrifuged at 17,000 × g for 30 min at 4 °C. Protein samples (30 μg) were electrophoresed through sodium dodecyl sulfate-polyacrylamide gels (SDS-PAGE) and transferred onto a nitrocellulose membrane, which was then blocked by incubation for 30 min at room temperature with 5% fat-free milk in PBS. Immunoblotting was performed by overnight incubation at 4 °C with primary antibodies in PBS, followed by incubation for 1 h at room temperature with HRP-conjugated secondary antibodies. Bound antibodies were measured using ECL reagent (T-Pro Biotechnology, New Taipei City, Taiwan), and the membrane was placed on a photographic film. Cell lysates (30 μg) were incubated with antibodies (1 μg each) and protein A/G agarose beads overnight at 4 °C. The precipitated beads were washed three times with 1 mL of ice-cold cell lysis buffer, and bound immune complexes were separated using 8% SDS-PAGE, followed by immunoblotting using the indicated primary antibody.
# [2] = tested on: SH-SY5Y cells; test: Western blot of tau phosphorylation and kinases in SH-SY5Y cells transfected with pCAX APP 695 and pRK5-EGFP-Tau P301L; format: cell-based, human; details: 0.1 μM, 24 h
# Method: Images represented magnification at ×100. b Cells were transfected with pCAX APP 695 for 24 h, harvested, and cell lysates were subjected to Western blotting. c, d SH-SY5Y and Neuro-2a cells were transfected with pCAX APP 695 and/or pRK5-EGFP-Tau P301L for 24 h. Cell lysates were prepared for western blot analysis of the indicated proteins. e, f Cells were transfected with pCAX APP 695 and pRK5-EGFP-Tau P301L for 24 h and were then incubated with or without MPT0G211 or ACY-1215 (0.1 μM) for another 24 h. Cell lysates were subjected to western blot analysis using the indicated antibodies. Results are presented as the mean ± SEM from three independent experiments. **p < 0.01, ***p < 0.001 compared with the control group; ^#p < 0.05, ^##p < 0.01 compared with the indicated groups
# Cell lysates were prepared for western blot analysis of the indicated proteins. Results are presented as the mean ± SEM. *p < 0.05, **p < 0.01, and ***p < 0.001 compared with the control group; ^#p < 0.05, ^##p < 0.01, ^###p < 0.001 compared with the indicated groups
# Cells were seeded 1 day before transfection. The plasmids pCAX FLAG APP and pRK5-EGFP-Tau P301L (1 μg each) and 1 μL of TurboFect transfection reagent were mixed for 20 min at room temperature, added to the cells, and the suspensions were incubated for 24 h at 37 °C in a humidified atmosphere containing 5% CO2.
# as §1
# [3] = tested on: SH-SY5Y cells; test: Subcellular fractionation of tau pools (tau aggregation) in transfected SH-SY5Y cells; format: cell-based, human; details: SH-SY5Y transfected hAPP 695 + hTau P301L, 0.1 μM, 24 h
# Method: The fractionation scheme used to separate different cellular pools of tau, and the western blot analysis of the effects of the compounds on tau pools generated using the fractionation scheme are presented. b, d SH-SY5Y cells were transfected for 24 h with pCAX APP 695 and pRK5-EGFP-Tau P301L, incubated with or without MPT0G211 or ACY-1215 (0.1 μM) for another 24 h, and then the cells were fixed and stained by propidium iodide (b) or annexin V/PI double staining (d) and analyzed by flow cytometry. c, e Percentages of the subG1 phase (c) or annexin V-positive cells (e) in response to drug treatment as explained in (b). Results are presented as the mean ± SEM. *p < 0.05 and **p < 0.01 compared with the control group; ^#p < 0.05 and ^##p < 0.01 compared with the indicated groups TEXT PRINTED IN THE PICTURE: (B) MPT0G211: hAPP + hTauP301L: SubG1 10.91% | (B) ACY-1215: hAPP + hTauP301L: SubG1 15.40% | (D) MPT0G211: hAPP + hTauP301L: 9.56%; hAPP + hTauP301L: 11.26% | (D) ACY-1215: hAPP + hTauP301L: 9.28%; hAPP + hTauP301L: 11.25%
# This assay followed a published method. Briefly, cells (1 × 10^7) were treated with drugs for 24 h and scraped off into breaking buffer (0.25 M sucrose, 10 mM HEPES, pH 7.2, 1 mM MgAc2, and protease inhibitors). […] Samples containing equal amounts of protein were analyzed using SDS-PAGE.
# [4] = tested on: Neuro-2a cells; test: Immunoprecipitation/immunoblot of HDAC6, acetyl-lysine, ubiquitin in transfected Neuro-2a cells; format: cell-based, mouse; details: Neuro-2a transfected, 24 h
# Method: Fig. 4 MPT0G211 increased the ubiquitination of p-tau and degradation by proteasome. a, b SH-SY5Y and Neuro-2a cells were transfected for 24 h with pCAX APP 695 and pRK5-EGFP-Tau P301L and incubated with MPT0G211 or ACY-1215 (0.1 μM) for another 24 h, after which the cell lysates were immunoprecipitated with antibodies against HDAC6, acetyl-lysine (a) or ubiquitin (b) and were subjected to immunoblotting. c Cells were transfected with pCAX APP 695 and pRK5-EGFP-Tau P301L for 24 h and were then incubated with MPT0G211 (0.01–1 μM) for another 24 h. Immunoblots reveal polyubiquitin complexes. d pCAX APP 695 or pRK5-EGFP-Tau P301L were used to transfect the cells for 24 h, incubated with or without MG132 (1 μM) for 30 min, and were then treated with MPT0G211 or ACY-1215 (0.1 μM) for another 24 h. Cell lysates were prepared for western blot analysis of the indicated proteins
# as §1
smiles,measurement,setting,value
"O=C(NO)c1ccc(CNc2cccc3cccnc23)cc1 [MPT0G211, N-hydroxy-4-((quinolin-8-ylamino)methyl)benzamide]",acetylation of histones,[1],without affecting the acetylation of histones
same,acetylation of α-tubulin,[1],concentration-dependently increased
same,phosphorylation of tau Ser396,[2]; SH-SY5Y transfected hAPP 695 + hTau P301L,significantly inhibited; also recorded: significantly attenuated
same,"CDK5, p25, or p35 expression",[2]; SH-SY5Y transfected,no marked changes
same,phospho-GSK3β on Ser9,[2]; SH-SY5Y transfected,significant phospho-GSK3β increases
same,phospho-GSK3β on Ser216,[2]; SH-SY5Y transfected,a decrease
same,phosphorylation of tau Ser404,[2]; SH-SY5Y transfected,significantly attenuated
same,levels of aggregated tau,[3],significantly reduced
same,coimmunoprecipitation of ubiquitin with p-tau (Ser396),[4]; 0.1 μM,clearly increased
same,HDAC6/Hsp90 binding,"[4]; 0.1 μM, IP",downregulation
same,acetylation of Hsp90,"[4]; 0.1 μM, IP",clearly enhanced
same,level of polyubiquitinated proteins,[4]; 0.01–1 μM,significantly accumulated
